The results in this text go back to ChEMBL document CHEMBL2203136, “Synthesis, characterization, biological evaluation and QSAR studies of 11-p-substituted phenyl-12-phenyl-11a,12-dihydro-11H-indeno[2,1-c][1,5]benzothiazepines as potential antimicrobial agents” (Eur J Med Chem, 2012).

Molecules are shown by their SMILES. ≈ marks a conversion by molar mass, not a printed value. Calls of active or inactive are those of the source. No cut-off for these calls is given here.

Data set [1] relates to Escherichia coli. Nature of the data set: Antibacterial activity against Escherichia coli MTCC 42 after 24 hrs by serial dilution method. The class given is functional. Particulars: for MIC: Escherichia coli, MTCC 42, 24 h.
For data set [2], the system named is Staphylococcus aureus. Kind of data set: Antibacterial activity against Staphylococcus aureus MTCC 7443 after 24 hrs by serial dilution method relative to 11,12-Diphenyl-11a,12-dihydro-11H-indeno[2,1-c][1,5]benzothiazepine. Type of data set: functional.
Data set [3] relates to Aspergillus fumigatus. Nature of the data set: Antifungal activity against Aspergillus fumigatus MTCC 2550 after 72 hrs by serial dilution method. The conditions noted are these: for MIC: Aspergillus fumigatus, MTCC 2550, 72 h. The class given is functional.
In data set [4] the test system is Pseudomonas aeruginosa. Nature of the data set: Antibacterial activity against Pseudomonas aeruginosa MTCC 7952 after 24 hrs by serial dilution method relative to 11,12-Diphenyl-11a,12-dihydro-11H-indeno[2,1-c][1,5]benzothiazepine. Type of data set: functional.
In data set [5] the test system is Bacillus subtilis. Kind of data set: Antibacterial activity against Bacillus subtilis MTCC 441 after 24 hrs by serial dilution method.
Data set [6] deals with Staphylococcus aureus. Nature of the data set: Antibacterial activity against Staphylococcus aureus MTCC 7443 after 24 hrs by serial dilution method. The class given is functional. Particulars: for MIC: Staphylococcus aureus, MTCC 7443, 24 h.
Data set [7] deals with Candida albicans. Nature of the data set: Antifungal activity against Candida albicans MTCC 183 after 72 hrs by serial dilution method. Type of data set: functional. Particulars: for MIC: Candida albicans, MTCC 183, 72 h.
In data set [8] the test system is Pseudomonas aeruginosa. Kind of data set: Antibacterial activity against Pseudomonas aeruginosa MTCC 7952 after 24 hrs by serial dilution method. Type of data set: functional. Particulars: for MIC: Pseudomonas aeruginosa, MTCC 7952, 24 h.
Data set [9] deals with Aspergillus fumigatus. Kind of data set: Antifungal activity against Aspergillus fumigatus MTCC 2550 after 72 hrs by serial dilution method relative to 11,12-Diphenyl-11a,12-dihydro-11H-indeno[2,1-c][1,5]benzothiazepine. Type of data set: functional.
Data set [10] can be described thus: Octanol-water partition coefficient, log P of the compound. The class given is physicochemical.
The subject of data set [11] is Escherichia coli. Kind of data set: Antibacterial activity against Escherichia coli MTCC 42 after 24 hrs by serial dilution method relative to 11,12-Diphenyl-11a,12-dihydro-11H-indeno[2,1-c][1,5]benzothiazepine. Type of data set: functional.
Data set [12] concerns Candida albicans. Nature of the data set: Antifungal activity against Candida albicans MTCC 183 after 72 hrs by serial dilution method relative to 11,12-Diphenyl-11a,12-dihydro-11H-indeno[2,1-c][1,5]benzothiazepine. Type of data set: functional.
The subject of data set [13] is Bacillus subtilis. Kind of data set: Antibacterial activity against Bacillus subtilis MTCC 441 after 24 hrs by serial dilution method relative to 11,12-Diphenyl-11a,12-dihydro-11H-indeno[2,1-c][1,5]benzothiazepine. The class given is functional.
In data set [14] the test system is Bacillus subtilis.
Data set [15] deals with Bacillus subtilis. Kind of data set: microbe, parasite or virus in culture. The conditions noted are these: MTCC 441, 24 h.

As usually defined, the logP is the decadic logarithm of the partition coefficient of the neutral form, usually between octanol and water.

For the compound `Clc1ccc2c(c1)SC(c1ccccc1)C1C(=N2)c2ccccc2C1c1ccccc1` (configuration not stated), the “-logMIC” value in [1] turned out to be 1.85; in [3] it was 1.55; in data set [6], 1.55; in data set [7] it was 1.55; in [8], 1.24. Moreover, the MIC in data set [1] worked out at 14.2 µM (≈ 6.22 µg/mL); in data set [3], 28.5 µM (≈ 12.5 µg/mL); in data set [6] it was 28.5 µM (≈ 12.5 µg/mL); in data set [7] it was 28.5 µM (≈ 12.5 µg/mL); in data set [8], 57 µM (≈ 25 µg/mL). Moreover, the Activity stood at 53.95% in data set [2]; 7.91% in [4]; 76.99% in data set [9]; 88.53% in data set [11]; 53.95% in [12]. The outcome in data set [5] was inactive. This compound also yielded a log partition coefficient (logP) in data set [10] of 7.48.
For the compound `Clc1ccc(C2Sc3cc(Cl)ccc3N=C3c4ccccc4C(c4ccccc4)C32)cc1` (configuration not stated), the “-logMIC” value in [1] is 1.88; in [3], 2.18; in data set [6], 1.28; in [7], 1.88; in data set [8], 0.98. Also, the MIC was 13.2 µM (≈ 6.24 µg/mL) in [1]; 6.6 µM (≈ 3.12 µg/mL) in data set [3]; 52.9 µM (≈ 25 µg/mL) in [6]; 13.2 µM (≈ 6.24 µg/mL) in [7]; 106 µM (≈ 50 µg/mL) in [8]. The Activity in data set [2] is 14.53%; in data set [4] it was -70.92%; in data set [9] it was 94.67%; in data set [11], 89.34%; in [12], 78.67%. Besides, the result in data set [5] was inactive. In addition, the logP in data set [10] was 8.
Consider `COc1ccc2c(c1)SC(c1ccccc1)C1C(=N2)c2ccccc2C1c1ccccc1` (configuration not stated), for which the Activity in data set [13] was 6.94%; in data set [2], 76.73%; in data set [4], 6.94%; in data set [9], 53.51%; in data set [11], 76.75%; in data set [12] it was -86.26%. Moreover, the “-logMIC” value is reported as 1.54 in data set [1]; 1.24 in data set [3]; 1.84 in [6]; 0.94 in [7]; 1.24 in [8]; 1.24 in data set [14]. Moreover, the MIC was 28.8 µM (≈ 12.5 µg/mL) in data set [1]; 57.6 µM (≈ 25 µg/mL) in [3]; 14.4 µM (≈ 6.24 µg/mL) in data set [6]; 115 µM (≈ 50 µg/mL) in data set [7]; 57.6 µM (≈ 25 µg/mL) in [8]; 57.6 µM (≈ 25 µg/mL) in data set [15]. The same compound came in with a logP in data set [10] of 6.71.
For `Cc1ccc(C2Sc3cc(C)ccc3N=C3c4ccccc4C(c4ccccc4)C32)cc1` (configuration not stated), the Activity in data set [13] is 53.31%; in data set [2] it was 53.31%; in data set [4], -87.07%; in data set [9], 6.53%; in [11], 53.26%; in data set [12], -87.1%. The “-logMIC” value is on record as 1.24 in data set [1]; 0.94 in data set [3]; 1.54 in data set [6]; 0.94 in [7]; 0.94 in data set [8]; 1.54 in data set [14]. Besides, the MIC in data set [1] is 57.9 µM (≈ 25 µg/mL); in data set [3] it was 116 µM (≈ 50 µg/mL); in data set [6] it was 28.9 µM (≈ 12.5 µg/mL); in data set [7] it was 116 µM (≈ 50 µg/mL); in data set [8], 116 µM (≈ 50 µg/mL); in data set [15], 28.9 µM (≈ 12.5 µg/mL). The compound also returned a logP in data set [10] of 7.9.
